How the values were obtained:
[1] = rate of dissolution in H2O at 25° C.; assay type: physicochemical; details: for Rate of dissolution in H2O at 25° C.: time: time for the amount printed in the same cell (see E2); for Rate of dissolution in H2O at 25° C.: amount dissolved: within the time printed in the same cell (see E3)
[2] = moisture content (Karl Fischer analysis); assay type: physicochemical
Experimental: Karl-Fischer analysis also was performed on the stevioside compositions obtained hereinbelow to determine the water content using a Mettler Toledo DL39 Karl Fischer titrator. Approximately 11-56 mg of sample were dissolved in approximately 3.5-3.7 g of dry Hydranal-Coulmat AD. Approximately 0.9-1.0 g of the resulting solution was placed in the KF titration vessel containing Hydranal-Coulomat AD and mixed for 10 seconds to ensure dissolution. The sample was titrated by means of a generator electrode which produces iodine by electrochemical oxidation: 2 I^−→I2+2e. The experiments were repeated in triplicate to ensure reproducibility.

[3] = room temperature; from U.S. Pat. No. 4,082,858; cited from earlier work

Row | Structure (SMILES) | Rate of dissolution in H2O at 25° C.: time [1] [min] | Rate of dissolution in H2O at 25° C.: amount dissolved [1] [% in] | Moisture content [2] [%] | rate of dissolution as compared to the polymorph forms of stevioside ([1]; in words) | water solubility [3]
1 | C=C1C[C@@]23CC[C@H]4[C@@](C)(CCC[C@@]4(C)C(=O)O[C@@H]4O[C@H](CO)[C@@H](O)[C@H](O)[C@H]4O)[C@@H]2CC[C@]1(O[C@@H]1O[C@H](CO)[C@@H](O)[C@H](O)[C@H]1O[C@@H]1O[C@H](CO)[C@@H](O)[C@H](O)[C@H]1O)C3 [Form 1, stevioside] | 30 | <0.075 | >5 | – | –
2 | C=C1C[C@@]23CC[C@H]4[C@@](C)(CCC[C@@]4(C)C(=O)O[C@@H]4O[C@H](CO)[C@@H](O)[C@H](O)[C@H]4O)[C@@H]2CC[C@]1(O[C@@H]1O[C@H](CO)[C@@H](O)[C@H](O)[C@H]1O[C@@H]1O[C@H](CO)[C@@H](O)[C@H](O)[C@H]1O)C3 [Form 2 A, stevioside] | 2 | <0.6 | <3 | – | –
3 | C=C1C[C@@]23CC[C@H]4[C@@](C)(CCC[C@@]4(C)C(=O)O[C@@H]4O[C@H](CO)[C@@H](O)[C@H](O)[C@H]4O)[C@@H]2CC[C@]1(O[C@@H]1O[C@H](CO)[C@@H](O)[C@H](O)[C@H]1O[C@@H]1O[C@H](CO)[C@@H](O)[C@H](O)[C@H]1O)C3 [Form 2B, stevioside] | <1.0 | 10.0 | <4 | – | –
4 | C=C1C[C@@]23CC[C@H]4[C@@](C)(CCC[C@@]4(C)C(=O)O[C@@H]4O[C@H](CO)[C@@H](O)[C@H](O)[C@H]4O)[C@@H]2CC[C@]1(O[C@@H]1O[C@H](CO)[C@@H](O)[C@H](O)[C@H]1O[C@@H]1O[C@H](CO)[C@@H](O)[C@H](O)[C@H]1O)C3 [Form 4, stevioside] | <1.0 | 40.0 | ~3 | improved rate of dissolution | –
5 | C=C1C[C@@]23CC[C@H]4[C@@](C)(CCC[C@@]4(C)C(=O)O[C@@H]4O[C@H](CO)[C@@H](O)[C@H](O)[C@H]4O)[C@@H]2CC[C@]1(O[C@@H]1O[C@H](CO)[C@@H](O)[C@H](O)[C@H]1O[C@@H]1O[C@H](CO)[C@@H](O)[C@H](O)[C@H]1O)C3 [stevioside, Stevioside] | – | – | – | – | approximately 1.25 g/L

— patent US8030481B2, “Stevioside polymorphic and amorphous forms, methods for their formulation, and uses” (The Coca-Cola Company, priority 2007, dated 2011)
